The record followed here is PMC8887894, “Pyruvate:ferredoxin oxidoreductase and low abundant ferredoxins support aerobic photomixotrophic growth in cyanobacteria” (eLife, 2022).

The assay has as its target T1, SynLPD (dihydrolipoyl dehydrogenase, E3 subunit of the PDH complex) (Synechocystis sp. PCC 6803, UniProt P72740).
T1 construct: gene lpdA
T1 sequence (P72740 2-474): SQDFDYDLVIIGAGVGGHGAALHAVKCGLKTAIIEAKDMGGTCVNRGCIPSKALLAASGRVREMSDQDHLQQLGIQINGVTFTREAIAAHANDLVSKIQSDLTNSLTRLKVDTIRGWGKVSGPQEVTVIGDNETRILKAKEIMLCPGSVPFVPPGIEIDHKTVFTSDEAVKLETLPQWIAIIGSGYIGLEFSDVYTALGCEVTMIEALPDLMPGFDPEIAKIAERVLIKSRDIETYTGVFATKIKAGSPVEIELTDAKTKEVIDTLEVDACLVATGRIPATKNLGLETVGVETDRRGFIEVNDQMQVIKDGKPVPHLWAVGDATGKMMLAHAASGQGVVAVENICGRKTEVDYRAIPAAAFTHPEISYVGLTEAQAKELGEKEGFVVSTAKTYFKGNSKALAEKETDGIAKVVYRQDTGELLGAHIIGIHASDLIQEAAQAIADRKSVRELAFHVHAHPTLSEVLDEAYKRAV
As to the kind of experiment: NAD+ reduction at […] nm; Ki from slopes of Lineweaver-Burk plots. The format is biochemical.

`NC(=O)C1=CN([C@@H]2O[C@H](COP(=O)(O)OP(=O)(O)OC[C@H]3O[C@@H](n4cnc5c(N)ncnc54)[C@H](O)[C@@H]3O)[C@@H](O)[C@H]2O)C=CC1` [NADH] returned a Ki of 38.3 µM.
